Earlier results, collected in publication PMC9516332 (Frontiers in Oncology, 2022).
Like-named read-outs stand apart in the source and are kept apart here.

What was measured:
Details in all cases: cited from earlier work
[1] = biological target: T1, panel of 255 wild-type kinases (Homo sapiens, UniProt Q9NRM7)
T1 sequence (Q9NRM7 1-1088): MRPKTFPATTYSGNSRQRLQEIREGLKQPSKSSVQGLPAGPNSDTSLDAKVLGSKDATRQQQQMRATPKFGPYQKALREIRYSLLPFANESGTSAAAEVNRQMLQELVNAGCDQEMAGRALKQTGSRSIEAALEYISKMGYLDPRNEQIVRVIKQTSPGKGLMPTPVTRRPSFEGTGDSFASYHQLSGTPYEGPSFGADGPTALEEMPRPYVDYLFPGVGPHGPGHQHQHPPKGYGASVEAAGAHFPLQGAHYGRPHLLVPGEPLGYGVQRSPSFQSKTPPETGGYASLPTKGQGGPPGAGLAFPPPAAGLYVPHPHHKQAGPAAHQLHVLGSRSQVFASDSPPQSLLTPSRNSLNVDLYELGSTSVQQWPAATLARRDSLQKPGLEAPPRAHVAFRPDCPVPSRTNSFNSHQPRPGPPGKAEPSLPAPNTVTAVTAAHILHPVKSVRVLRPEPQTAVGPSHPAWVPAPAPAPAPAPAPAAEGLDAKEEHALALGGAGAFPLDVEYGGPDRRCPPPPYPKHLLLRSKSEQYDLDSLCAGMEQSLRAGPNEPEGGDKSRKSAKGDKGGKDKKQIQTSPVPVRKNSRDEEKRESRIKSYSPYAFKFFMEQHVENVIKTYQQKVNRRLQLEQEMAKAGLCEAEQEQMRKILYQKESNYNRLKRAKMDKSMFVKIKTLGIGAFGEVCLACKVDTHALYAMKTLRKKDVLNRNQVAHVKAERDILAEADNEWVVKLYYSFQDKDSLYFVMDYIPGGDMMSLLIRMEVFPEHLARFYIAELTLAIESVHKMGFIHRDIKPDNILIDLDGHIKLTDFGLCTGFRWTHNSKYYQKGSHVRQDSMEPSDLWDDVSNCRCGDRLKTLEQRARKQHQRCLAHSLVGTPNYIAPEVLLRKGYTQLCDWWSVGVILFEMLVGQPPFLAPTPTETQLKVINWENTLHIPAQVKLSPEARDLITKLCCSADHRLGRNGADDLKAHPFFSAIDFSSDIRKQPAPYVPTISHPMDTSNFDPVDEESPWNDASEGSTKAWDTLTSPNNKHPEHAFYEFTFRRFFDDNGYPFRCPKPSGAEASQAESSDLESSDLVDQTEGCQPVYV

[2] = biological target: T2, panel of 255 wild-type kinases (Homo sapiens, UniProt Q96PN8)
T2 sequence (Q96PN8 1-268): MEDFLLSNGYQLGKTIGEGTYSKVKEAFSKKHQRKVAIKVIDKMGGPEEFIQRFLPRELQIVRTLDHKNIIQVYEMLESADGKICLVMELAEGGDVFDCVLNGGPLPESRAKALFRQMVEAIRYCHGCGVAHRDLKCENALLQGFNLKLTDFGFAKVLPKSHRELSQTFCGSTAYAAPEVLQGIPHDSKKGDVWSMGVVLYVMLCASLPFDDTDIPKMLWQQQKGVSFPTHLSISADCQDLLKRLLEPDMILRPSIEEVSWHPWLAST

[3] = biological target: panel of 255 wild-type kinases (Homo sapiens, UniProt Q86V86)
[4] = biological target: T3, panel of 255 wild-type kinases (Homo sapiens, UniProt O15264)
T3 sequence (O15264 1-365): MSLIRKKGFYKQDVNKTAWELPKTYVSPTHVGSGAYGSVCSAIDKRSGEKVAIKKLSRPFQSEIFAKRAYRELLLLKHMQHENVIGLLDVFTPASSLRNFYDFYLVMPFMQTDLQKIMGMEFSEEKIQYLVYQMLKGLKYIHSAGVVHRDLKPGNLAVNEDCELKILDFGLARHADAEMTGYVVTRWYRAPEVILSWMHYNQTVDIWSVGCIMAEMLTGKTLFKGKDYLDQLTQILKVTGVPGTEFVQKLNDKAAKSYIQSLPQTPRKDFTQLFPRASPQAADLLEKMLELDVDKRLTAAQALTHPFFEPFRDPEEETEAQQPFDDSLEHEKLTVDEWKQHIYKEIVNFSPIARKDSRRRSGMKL

[5] = biological target: T4, panel of 255 wild-type kinases (Homo sapiens, UniProt O15146)
T4 sequence (O15146 24-869): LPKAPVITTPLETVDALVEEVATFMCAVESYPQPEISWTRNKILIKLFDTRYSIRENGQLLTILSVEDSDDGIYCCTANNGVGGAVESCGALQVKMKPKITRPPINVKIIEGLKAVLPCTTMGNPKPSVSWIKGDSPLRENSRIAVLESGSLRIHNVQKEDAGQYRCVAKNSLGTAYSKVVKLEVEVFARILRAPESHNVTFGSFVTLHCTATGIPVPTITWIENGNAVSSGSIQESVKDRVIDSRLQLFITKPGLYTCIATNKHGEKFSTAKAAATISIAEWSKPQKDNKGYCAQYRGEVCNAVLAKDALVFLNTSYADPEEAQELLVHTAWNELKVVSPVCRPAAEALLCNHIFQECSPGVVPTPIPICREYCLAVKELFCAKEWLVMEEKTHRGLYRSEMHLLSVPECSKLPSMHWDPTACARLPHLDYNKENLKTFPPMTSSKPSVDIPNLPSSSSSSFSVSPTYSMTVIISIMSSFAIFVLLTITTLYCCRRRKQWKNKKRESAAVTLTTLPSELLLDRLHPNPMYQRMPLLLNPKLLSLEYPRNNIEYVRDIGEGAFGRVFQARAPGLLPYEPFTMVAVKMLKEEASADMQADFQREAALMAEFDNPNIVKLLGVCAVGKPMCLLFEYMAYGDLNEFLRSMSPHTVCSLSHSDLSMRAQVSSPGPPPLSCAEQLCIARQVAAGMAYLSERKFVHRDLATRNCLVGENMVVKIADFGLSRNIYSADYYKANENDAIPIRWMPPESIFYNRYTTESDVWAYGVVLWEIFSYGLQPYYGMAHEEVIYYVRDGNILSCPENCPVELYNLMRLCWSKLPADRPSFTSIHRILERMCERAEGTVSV

[6] = kinase LATS2, 1 µmol/L single concentration, ref DOI: 10.1158/1535-7163.MCT-18-0877
[7] = kinase TSSK3, 1 µmol/L single concentration, ref DOI: 10.1158/1535-7163.MCT-18-0877
[8] = kinase PIM3, 1 µmol/L single concentration, ref DOI: 10.1158/1535-7163.MCT-18-0877
[9] = p38δ, 1 µmol/L single concentration, ref DOI: 10.1158/1535-7163.MCT-18-0877
[10] = MUSK, 1 µmol/L single concentration, ref DOI: 10.1158/1535-7163.MCT-18-0877
[11] = kinase LATS2, 1 µmol/L single concentration, ref DOI: 10.1371/journal.pone.0092146
[12] = kinase TSSK3, 1 µmol/L single concentration, ref DOI: 10.1371/journal.pone.0092146
[13] = kinase PIM3, 1 µmol/L single concentration, ref DOI: 10.1371/journal.pone.0092146
[14] = p38δ, 1 µmol/L single concentration, ref DOI: 10.1371/journal.pone.0092146
[15] = MUSK, 1 µmol/L single concentration, ref DOI: 10.1371/journal.pone.0092146

SMILES | %-inhibition at 1 µmol/L, LATS2 [1, 6] [%] | %-inhibition at 1 µmol/L, TSSK3 [2, 7] [%] | %-inhibition at 1 µmol/L, PIM3 [3, 8] [%] | %-inhibition, p38δ [4, 9] [%] | %-inhibition, MUSK [5, 10] [%] | %-inhibition at 1 µmol/L, LATS2 [1, 11] [%] | %-inhibition at 1 µmol/L, TSSK3 [2, 12] [%] | %-inhibition at 1 µmol/L, PIM3 [3, 13] [%] | %-inhibition, p38δ [4, 14] [%] | %-inhibition, MUSK [5, 15] [%] | also measured
CC#CC(=O)N1CCC[C@H]1c1nc(-c2ccc(C(=O)Nc3ccccn3)cc2)c2c(N)nccn12 [acalabrutinib] | -7.45 | -8 | -0.0376 | -1.74 | -0.581 |  |  |  |  |  | 
CCc1cc2c(cc1N1CCC(N3CCOCC3)CC1)C(C)(C)c1[nH]c3cc(C#N)ccc3c1C2=O [alectinib] | 1.69 | -3.58 | 52 | 0.128 | 6 |  |  |  |  |  | 
COc1cc(N2CCC(N3CCN(C)CC3)CC2)ccc1Nc1ncc(Cl)c(Nc2ccccc2P(C)(C)=O)n1 [brigatinib] |  |  |  |  |  |  |  |  |  |  | %-inhibition at 1 µmol/L, LATS2 [1]: 49%; %-inhibition at 1 µmol/L, TSSK3 [2]: 3%; %-inhibition at 1 µmol/L, PIM3 [3]: 5.69%; %-inhibition, p38δ [4]: 0.87%; %-inhibition, MUSK [5]: 82%
Cc1cc(Nc2ncc(Cl)c(Nc3ccccc3S(=O)(=O)C(C)C)n2)c(OC(C)C)cc1C1CCNCC1 [ceritinib] | 2.29 | 8 | -0.463 | 3 | 45 |  |  |  |  |  | 
O=C(c1ccc(F)c(F)c1Nc1ccc(I)cc1F)N1CC(O)([C@@H]2CCCCN2)C1 [cobimetinib] | 1.46 | -5 | -0.814 | -6 | 2.78 |  |  |  |  |  | 
C[C@@H](Oc1cc(-c2cnn(C3CCNCC3)c2)cnc1N)c1c(Cl)ccc(F)c1Cl [crizotinib] |  |  |  |  |  | -6 | -0.601 | -4 | -3.41 | 99 | 
CC(C)(C)c1nc(-c2cccc(NS(=O)(=O)c3c(F)cccc3F)c2F)c(-c2ccnc(N)n2)s1 [dabrafenib] |  |  |  |  |  | 0.57 | -8 | 9 | -3.43 | 16 | 
C=CC(=O)N1CCC[C@@H](n2nc(-c3ccc(Oc4ccccc4)cc3)c3c(N)ncnc32)C1 [ibrutinib] | 5.45 | -4 | -0.241 | -3.68 | 1.76 |  |  |  |  |  | 
CO[C@@H]1[C@H](N(C)C(=O)c2ccccc2)C[C@H]2O[C@]1(C)n1c3ccccc3c3c4c(c5c6ccccc6n2c5c31)C(=O)NC4 [midostaurin] | 86 | -2.3 | 71 | 3.36 | 94 |  |  |  |  |  | 
C=CC(=O)Nc1cc(Nc2nccc(-c3cn(C)c4ccccc34)n2)c(OC)cc1N(C)CCN(C)C [osimertinib] | 5 | -0.941 | 15 | -5.38 | 8 |  |  |  |  |  | 
CC(=O)Nc1cccc(-n2c(=O)n(C3CC3)c(=O)c3c(Nc4ccc(I)cc4F)n(C)c(=O)c(C)c32)c1 [trametinib] |  |  |  |  |  | 1.87 | -8 | 8.44 | -2.7 | -0.929 | 
CCCS(=O)(=O)Nc1ccc(F)c(C(=O)c2c[nH]c3ncc(-c4ccc(Cl)cc4)cc23)c1F [vemurafenib] |  |  |  |  |  | -2.28 | -3.19 | -5 | 8 | -0.285 | 
